# Measurements taken from patent publication US20110294810A1, “SUBSTITUTED (PYRIDYL)-AZINYLAMINE DERIVATIVES AS PLANT PROTECTION AGENTS” (priority 2008, published 2011).
# Assay: Measurement of logP values by HPLC on reversed phase columns (EEC directive 79/831 Annex V.A8)
# Assay type: physicochemical
# Details: HPLC on reversed phase columns; usually LC-MS at pH 2.7 with 0.1% formic acid in water and acetonitrile, linear gradient 10% to 95% acetonitrile
row,SMILES,log p
1,CCCCN(C)Cc1cc(-c2ccnc(Nc3cccc(Cl)c3)n2)ccn1 [Compound A38],1.97
2,CN(Cc1cc(-c2ccnc(Nc3cccc(Cl)c3)n2)ccn1)CC1OCCO1 [Compound A44],1.79
3,CC1(C)CCCN(Cc2cc(-c3ccnc(Nc4cccc(Cl)c4)n3)ccn2)C1 [Compound A45],2.1
4,CC1CCCN1Cc1cc(-c2ccnc(Nc3cccc(Cl)c3)n2)ccn1 (stereo not drawn) [Compound A46],1.76
5,CN(C)CCN(C)Cc1cc(-c2ccnc(Nc3cccc(Cl)c3)n2)ccn1 [Compound A58],1.44
6,C=CCN(C)Cc1cc(-c2ccnc(Nc3cccc(Cl)c3)n2)ccn1 [Compound A59],1.75
7,CC(C)CN(C)Cc1cc(-c2ccnc(Nc3cccc(Cl)c3)n2)ccn1 [Compound A60],1.93
8,CCC(C)N(C)Cc1cc(-c2ccnc(Nc3cccc(Cl)c3)n2)ccn1 (stereo not drawn) [Compound A61],1.88
9,CN1CCC(N(C)Cc2cc(-c3ccnc(Nc4cccc(Cl)c4)n3)ccn2)CC1 [Compound A63],1.07

# Same assay, conditions: pH 2.7
row,log p,SMILES
1,2.52,"CC(C)C(=O)NCc1cc(-c2ccnc(Nc3cccc(Cl)c3)n2)ccn1 [Compound A2, N-[(4-{2-[(3-chlorophenyl)amino]pyrimidin-4-yl}pyridin-2-yl)methyl]-2-methyl propanamide]"
2,2.51,CCCC(=O)NCc1cc(-c2ccnc(Nc3cccc(Cl)c3)n2)ccn1 [Compound A5]
3,2.69,O=C(NCc1cc(-c2ccnc(Nc3cccc(Cl)c3)n2)ccn1)C1CCC1 [Compound A7]
4,2.84,CC(C)CC(=O)NCc1cc(-c2ccnc(Nc3cccc(Cl)c3)n2)ccn1 [Compound A9]
5,2.75,CC(C)=CC(=O)NCc1cc(-c2ccnc(Nc3cccc(Cl)c3)n2)ccn1 [Compound A10]
6,2.39,O=C(NCc1cc(-c2ccnc(Nc3cccc(Cl)c3)n2)ccn1)C1CC1 [Compound A12]
7,2.88,CC(C)(C)C(=O)NCc1cc(-c2ccnc(Nc3cccc(Cl)c3)n2)ccn1 [Compound A13]
8,3.29,COCC(=S)NCc1cc(-c2ccnc(Nc3cccc(Cl)c3)n2)ccn1 [Compound A16]
9,3.02,CC(=O)OCc1cc(-c2ccnc(Nc3cccc(Cl)c3)n2)ccn1 [Compound A18]
10,4.73,CCCCCC(=O)OCc1cc(-c2ccnc(Nc3cccc(Cl)c3)n2)ccn1 [Compound A19]
11,4.26,CC(C)CC(=O)OCc1cc(-c2ccnc(Nc3cccc(Cl)c3)n2)ccn1 [Compound A21]
12,2.35,CC(=O)OCc1cc(-c2ccnc(N(C(C)=O)c3cccc(Cl)c3)n2)ccn1 [Compound A26]
13,3.89,CC(C)C(=O)OCc1cc(-c2ccnc(Nc3cccc(Cl)c3)n2)ccn1 [Compound A31]
14,3.73,C#CCCCC(=O)OCc1cc(-c2ccnc(Nc3cccc(Cl)c3)n2)ccn1 [Compound A33]
15,4.41,O=C(OCc1cc(-c2ccnc(Nc3cccc(Cl)c3)n2)ccn1)C1CCCC1 [Compound A36]
16,1.57,CN(C)Cc1cc(-c2ccnc(Nc3cccc(Cl)c3)n2)ccn1 [Compound A41]
17,1.67,Clc1cccc(Nc2nccc(-c3ccnc(CN4CC=CC4)c3)n2)c1 [Compound A49]
18,1.95,CN(Cc1cc(-c2ccnc(Nc3cccc(Cl)c3)n2)ccn1)C1CCCC1 [Compound A51]
19,1.66,CCN(C)Cc1cc(-c2ccnc(Nc3cccc(Cl)c3)n2)ccn1 [Compound A52]
20,1.78,CCN(CC)Cc1cc(-c2ccnc(Nc3cccc(Cl)c3)n2)ccn1 [Compound A53]
21,1.74,CN(CCC#N)Cc1cc(-c2ccnc(Nc3cccc(Cl)c3)n2)ccn1 [Compound A64]
22,1.81,CCCN(C)Cc1cc(-c2ccnc(Nc3cccc(Cl)c3)n2)ccn1 [Compound A65]
23,3.48,CCCSCc1cc(-c2ccnc(Nc3cccc(Cl)c3)n2)ccn1 [Compound A70]
24,4.56,CCCCSCc1cc(-c2ccnc(Nc3cccc(Cl)c3)n2)ccn1 [Compound A71]
25,3.11,COCCOCCSCc1cc(-c2ccnc(Nc3cccc(Cl)c3)n2)ccn1 [Compound A73]

row,log p,SMILES
1,3.35,N#CCCCCSCc1cc(-c2ccnc(Nc3cccc(Cl)c3)n2)ccn1 [Compound A76]
2,5,CCC(C)CSCc1cc(-c2ccnc(Nc3cccc(Cl)c3)n2)ccn1 (stereo not drawn) [Compound A77]
3,2.68,COCC(=O)NC(C)c1cc(-c2ccnc(Nc3cccc(Cl)c3)n2)ccn1 (stereo not drawn) [Compound A80]
4,2.11,COCC(=O)NC(C)c1cc(-c2ccnc(N(C(=O)COC)c3cccc(Cl)c3)n2)ccn1 (stereo not drawn) [Compound A81]
5,4.39,Clc1cccc(Nc2nccc(-c3ccnc(CSCc4ccccc4)c3)n2)c1 [Compound A83]
6,4.54,CC(C)CSCc1cc(-c2ccnc(Nc3cccc(Cl)c3)n2)ccn1 [Compound A84]
7,3.78,C=C(C)C(=O)OCc1cc(-c2ccnc(Nc3cccc(Cl)c3)n2)ccn1 [Compound A87]
8,3.92,C=C(C)CC(=O)OCc1cc(-c2ccnc(Nc3cccc(Cl)c3)n2)ccn1 [Compound A88]
9,4.01,CC(C)=CC(=O)OCc1cc(-c2ccnc(Nc3cccc(Cl)c3)n2)ccn1 [Compound A89]
10,2.8,CCCC(=O)NC(C)c1cc(-c2ccnc(Nc3cccc(Cl)c3)n2)ccn1 (stereo not drawn) [Compound A90]
11,3.71,CC(c1cc(-c2ccnc(N(C(=O)C3CC3)c3cccc(Cl)c3)n2)ccn1)N(C(=O)C1CC1)C(=O)C1CC1 (stereo not drawn) [Compound A91]
12,2.49,CC(NC(=O)C1CC1)c1cc(-c2ccnc(N(C(=O)C3CC3)c3cccc(Cl)c3)n2)ccn1 (stereo not drawn) [Compound A92]
13,2.64,CC(NC(=O)C1CC1)c1cc(-c2ccnc(Nc3cccc(Cl)c3)n2)ccn1 (stereo not drawn) [Compound A93]
14,2.94,N#CCc1cc(-c2ccnc(Nc3cccc(Cl)c3)n2)ccn1 [Compound A94]
15,3.17,CCSCCN(C=O)Cc1cc(-c2ccnc(Nc3cccc(Cl)c3)n2)ccn1 [Compound A96]
16,3.83,COCC(C)C(=O)OC(C)c1cc(-c2ccnc(Nc3cccc(Cl)c3)n2)ccn1 (stereo not drawn) [Compound A99]
17,3.1,CC(C)(C)OC(=O)NCc1cc(-c2ncnc(Nc3cccc(Cl)c3)n2)ccn1 [Compound C1]
18,2.94,CC(C)OC(=O)NCc1cc(-c2ncnc(Nc3cccc(Cl)c3)n2)ccn1 [Compound C3]
19,2.84,C=COC(=O)NCc1cc(-c2ncnc(Nc3cccc(Cl)c3)n2)ccn1 [Compound C5]
20,2.88,O=C(NCc1cc(-c2ccnc(Nc3cccc(Cl)c3)n2)ccn1)C1CCCC1 [Example A3]
21,2.6,C=C(C)C(=O)NCc1cc(-c2ccnc(Nc3cccc(Cl)c3)n2)ccn1 [Example A8]
22,2.33,COCC(=O)NCc1cc(-c2ccnc(Nc3cccc(Cl)c3)n2)ccn1 [Example A11]
23,3.83,CCCC(=O)OCc1cc(-c2ccnc(Nc3cccc(Cl)c3)n2)ccn1 [Example A20]
24,3.44,CCC(=O)OCc1cc(-c2ccnc(Nc3cccc(Cl)c3)n2)ccn1 [Example A22]

# Same assay, conditions: reversed phase HPLC column; HPLC on reversed phase columns; usual method: LC-MS at pH 2.7, 0.1% formic acid in water / acetonitrile, linear gradient 10% to 95% acetonitrile; read-out: logP
row,chromatographic logP,SMILES
1,2.13,"CCC(C)CNC(C)c1cc(-c2ccnc(Nc3cccc(Cl)c3)n2)ccn1 (stereo not drawn) [Compound A97, N-(3-chlorophenyl)-4-(2-{1-[(2-methylbutyl)amino]ethyl}pyridin-4-yl)pyrimidin-2-amine]"
2,3.33,"CC(=O)OC(C)c1cc(-c2ccnc(Nc3cccc(Cl)c3)n2)ccn1 (stereo not drawn) [Compound A98, 1-(4-{2-[(3-chlorophenyl)amino]pyrimidin-4-yl}pyridin-2-yl)ethyl acetate]"

# Same assay, conditions: reversed phase HPLC column; HPLC on reversed phase columns; usually LC-MS at pH 2.7 with 0.1% formic acid in water and acetonitrile, linear gradient 10% to 95% acetonitrile; read-out: log p
row,chromatographic logP,SMILES
1,1.52,"NCc1cc(-c2ccnc(Nc3cccc(Cl)c3)n2)ccn1 [Compound A1, 4-[2-(aminomethyl)pyridin-4-yl]-N-(3-chlorophenyl)pyrimidin-2-amine]"
2,3.59,"CCC(C)CNC(=S)NCc1cc(-c2ccnc(Nc3cccc(Cl)c3)n2)ccn1 (stereo not drawn) [Compound A6, 1-[(4-{2-[(3-chlorophenyl)amino]pyrimidin-4-yl}pyridin-2-yl)methyl]-3-(2-methylbutyl)thiourea]"
3,3.46,"ClCc1cc(-c2ccnc(Nc3cccc(Cl)c3)n2)ccn1 [Compound A15, 4-[2-(chloromethyl)pyridin-4-yl]-N-(3-chlorophenyl)pyrimidin-2-amine]"
4,1.81,"Clc1cccc(Nc2nccc(-c3ccnc(CN4CCCCC4)c3)n2)c1 [Compound A17, N-(3-chlorophenyl)-4-[2-(piperidin-1-ylmethyl)pyridin-4-yl]pyrimidin-2-amine]"
5,3.02,"COCc1cc(-c2ccnc(N(C)c3cccc(Cl)c3)n2)ccn1 [Compound A25, N-(3-chlorophenyl)-4-[2-(methoxymethyl)pyridin-4-yl]-N-methylpyrimidin-2-amine]"
6,3.64,"C=CCC(=O)OCc1cc(-c2ccnc(Nc3cccc(Cl)c3)n2)ccn1 [Compound A37, (4-{2-[(3-chlorophenyl)amino]pyrimidin-4-yl}pyridin-2-yl)methyl but-3-enoate]"
7,3.64,"CCSCc1cc(-c2ccnc(Nc3cccc(Cl)c3)n2)ccn1 [Compound A69, N-(3-chlorophenyl)-4-{2-[(ethylsulfanyl)methyl]pyridin-4-yl}pyrimidin-2-amine]"

# Same assay, conditions: reversed phase HPLC column; LC-MS at pH 2.7, 0.1% formic acid in water / acetonitrile, gradient 10% to 95% acetonitrile; read-out: log p
row,chromatographic logP,SMILES
1,2.64,"CCOC(=O)NCc1cc(-c2ncnc(Nc3cccc(Cl)c3)n2)ccn1 [Compound C4, ethyl[(4-{4-[(3-chlorophenyl)amino]-1,3,5-triazin-2-yl}pyridin-2-yl)methyl]carbamate]"

# Same assay, conditions: reversed phase HPLC column; LC-MS at pH 7.8, 0.001 molar ammonium hydrogen carbonate in water, gradient 10% to 95% acetonitrile; read-out: log p [c]
row,chromatographic logP,SMILES
1,1.74,"NCc1cc(-c2ncnc(Nc3cccc(Cl)c3)n2)ccn1 [Compound C6, 4-[2-(aminomethyl)pyridin-4-yl]-N-(3-chlorophenyl)-1,3,5-triazin-2-amine]"
